Measured values published in ChEMBL document CHEMBL3525973, “Quantitative prediction of human intestinal glucuronidation effects on intestinal availability of UDP-glucuronosyltransferase substrates using in vitro data” (Drug Metab Dispos, 2012).

Tests used:
[1] = Intrinsic clearance in human intestinal microsomes assessed CYP450-mediated glucuronidation clearance
[2] = Unbound fraction during UGT-mediated glucuronidation in human intestinal microsomes
[3] = Intrinsic clearance in human intestinal microsomes assessed UGT-mediated glucuronidation clearance
[4] = Unbound intrinsic clearance in human intestinal microsomes assessed UGT-mediated glucuronidation clearance
[5] = biological target: T1, UDP-glucuronosyltransferase 1A3 (Homo sapiens, UniProt P35503); test: Activity of human UGT1A3 expressed in insect cells assessed as reduction in compound level after 30 mins; format: ADME; settings: 0.5 h
T1 sequence (P35503 whole entry): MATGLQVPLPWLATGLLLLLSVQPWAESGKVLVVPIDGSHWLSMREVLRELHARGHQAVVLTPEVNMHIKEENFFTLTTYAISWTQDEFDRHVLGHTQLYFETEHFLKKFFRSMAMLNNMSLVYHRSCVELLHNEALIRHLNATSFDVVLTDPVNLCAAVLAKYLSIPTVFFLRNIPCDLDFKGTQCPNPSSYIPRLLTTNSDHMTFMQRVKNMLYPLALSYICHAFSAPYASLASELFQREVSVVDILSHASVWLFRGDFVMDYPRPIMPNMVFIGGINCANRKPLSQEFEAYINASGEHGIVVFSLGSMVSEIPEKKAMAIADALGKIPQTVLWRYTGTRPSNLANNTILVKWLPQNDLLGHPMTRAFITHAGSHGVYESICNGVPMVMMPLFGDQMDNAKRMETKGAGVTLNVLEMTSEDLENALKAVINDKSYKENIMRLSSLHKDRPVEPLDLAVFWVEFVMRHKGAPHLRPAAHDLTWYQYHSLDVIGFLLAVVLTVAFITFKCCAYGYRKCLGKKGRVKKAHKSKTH

[6] = biological target: T2, UDP-glucuronosyltransferase 1A1 (Homo sapiens, UniProt P22309); test: Activity of human UGT1A1 expressed in insect cells assessed as reduction in compound level after 30 mins; format: ADME; settings: 0.5 h
T2 sequence (P22309 whole entry): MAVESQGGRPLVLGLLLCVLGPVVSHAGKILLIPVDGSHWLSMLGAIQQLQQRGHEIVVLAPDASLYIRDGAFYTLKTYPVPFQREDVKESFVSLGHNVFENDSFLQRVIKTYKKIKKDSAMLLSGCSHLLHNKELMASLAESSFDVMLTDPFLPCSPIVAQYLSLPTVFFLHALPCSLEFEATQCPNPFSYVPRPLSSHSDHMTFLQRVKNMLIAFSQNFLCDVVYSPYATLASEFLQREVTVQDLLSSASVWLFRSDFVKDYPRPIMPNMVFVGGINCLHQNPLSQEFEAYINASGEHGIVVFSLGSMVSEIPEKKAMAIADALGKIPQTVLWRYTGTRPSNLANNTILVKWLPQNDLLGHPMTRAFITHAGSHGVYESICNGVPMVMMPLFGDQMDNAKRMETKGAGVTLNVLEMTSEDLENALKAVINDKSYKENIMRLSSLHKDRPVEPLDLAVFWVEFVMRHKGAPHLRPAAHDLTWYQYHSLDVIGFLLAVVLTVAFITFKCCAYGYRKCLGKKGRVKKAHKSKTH

[7] = Drug absorption in po dosed human; format: ADME, organism-based; settings: in vivo, read-out: Drug absorption
[8] = Apparent permeability by PAMPA method
clinical [9] = settings: human, in vivo, po
in vitro = settings: human, blood and plasma
Description: Ratio of drug level in blood to plasma in human

[10] = biological target: T3, UDP-glucuronosyltransferase 1A8 (Homo sapiens, UniProt Q9HAW9); test: Activity of human UGT1A8 expressed in insect cells assessed as reduction in compound level after 30 mins; format: ADME; settings: 0.5 h
T3 sequence (Q9HAW9 whole entry): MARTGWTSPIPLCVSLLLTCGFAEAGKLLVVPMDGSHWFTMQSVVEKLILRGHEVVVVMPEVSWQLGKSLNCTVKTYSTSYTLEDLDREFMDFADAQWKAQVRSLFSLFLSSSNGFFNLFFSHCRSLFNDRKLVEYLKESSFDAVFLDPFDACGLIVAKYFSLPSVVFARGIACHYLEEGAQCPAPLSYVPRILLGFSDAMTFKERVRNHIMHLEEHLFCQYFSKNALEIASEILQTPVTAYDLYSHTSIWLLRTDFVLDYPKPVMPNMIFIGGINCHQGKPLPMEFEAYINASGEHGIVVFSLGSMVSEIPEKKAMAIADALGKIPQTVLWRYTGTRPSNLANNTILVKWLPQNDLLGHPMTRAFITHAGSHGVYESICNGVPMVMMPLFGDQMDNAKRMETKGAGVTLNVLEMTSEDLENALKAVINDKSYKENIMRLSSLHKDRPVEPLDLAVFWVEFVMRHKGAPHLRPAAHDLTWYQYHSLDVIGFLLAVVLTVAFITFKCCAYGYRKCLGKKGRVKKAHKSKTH

[11] = biological target: T4, UDP-glucuronosyltransferase 1A10 (Homo sapiens, UniProt Q9HAW8); test: Activity of human UGT1A10 expressed in insect cells assessed as reduction in compound level after 30 mins; format: ADME; settings: 0.5 h
T4 sequence (Q9HAW8 whole entry): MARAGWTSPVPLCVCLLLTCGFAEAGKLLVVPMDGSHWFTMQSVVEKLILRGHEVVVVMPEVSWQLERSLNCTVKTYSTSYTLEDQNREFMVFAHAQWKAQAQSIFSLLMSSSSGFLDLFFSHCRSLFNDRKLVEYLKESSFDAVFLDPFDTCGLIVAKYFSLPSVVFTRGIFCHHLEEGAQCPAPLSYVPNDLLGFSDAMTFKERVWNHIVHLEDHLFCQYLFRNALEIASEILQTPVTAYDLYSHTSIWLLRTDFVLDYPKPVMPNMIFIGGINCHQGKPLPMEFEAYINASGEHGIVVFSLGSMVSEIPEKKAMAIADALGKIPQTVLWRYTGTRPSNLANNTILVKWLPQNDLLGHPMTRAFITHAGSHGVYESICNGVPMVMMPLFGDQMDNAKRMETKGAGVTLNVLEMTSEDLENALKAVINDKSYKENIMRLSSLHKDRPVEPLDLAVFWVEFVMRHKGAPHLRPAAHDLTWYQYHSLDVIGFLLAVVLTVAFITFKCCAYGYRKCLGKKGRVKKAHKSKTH

[12] = Oral bioavailability in human; format: ADME, organism-based; settings: in vivo
[13] = biological target: T5, UDP-glucuronosyltransferase 1A9 (Homo sapiens, UniProt O60656); test: Activity of human UGT1A9 expressed in insect cells assessed as reduction in compound level after 30 mins; format: ADME; settings: 0.5 h
T5 sequence (O60656 whole entry): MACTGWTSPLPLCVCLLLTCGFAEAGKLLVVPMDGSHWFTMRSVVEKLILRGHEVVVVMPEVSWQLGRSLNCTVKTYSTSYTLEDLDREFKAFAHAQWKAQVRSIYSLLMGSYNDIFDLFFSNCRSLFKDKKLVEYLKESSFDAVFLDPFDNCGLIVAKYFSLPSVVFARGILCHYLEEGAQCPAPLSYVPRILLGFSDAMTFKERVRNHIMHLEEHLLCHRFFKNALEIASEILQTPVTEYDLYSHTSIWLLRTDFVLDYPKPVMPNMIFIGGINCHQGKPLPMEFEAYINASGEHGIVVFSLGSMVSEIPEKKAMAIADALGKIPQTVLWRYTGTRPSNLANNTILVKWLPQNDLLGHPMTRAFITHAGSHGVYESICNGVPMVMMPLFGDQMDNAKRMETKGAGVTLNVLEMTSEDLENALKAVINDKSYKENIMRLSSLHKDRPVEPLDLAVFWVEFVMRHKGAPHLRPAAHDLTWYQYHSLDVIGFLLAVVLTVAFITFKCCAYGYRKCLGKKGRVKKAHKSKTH

clinical [14] = settings: human, in vivo
clinical [15] = settings: human, in vivo; remark: listed apart in the source
[16] = Unbound fraction during CYP4500-mediated metabolism in human intestinal microsomes
[17] = Unbound intrinsic clearance in human intestinal microsomes assessed CYP450-mediated glucuronidation clearance
[18] = biological target: T6, UDP-glucuronosyltransferase 2B7 (Homo sapiens, UniProt P16662); test: Activity of human UGT2B7 expressed in insect cells assessed as reduction in compound level after 30 mins; format: ADME; settings: 0.5 h
T6 sequence (P16662 whole entry): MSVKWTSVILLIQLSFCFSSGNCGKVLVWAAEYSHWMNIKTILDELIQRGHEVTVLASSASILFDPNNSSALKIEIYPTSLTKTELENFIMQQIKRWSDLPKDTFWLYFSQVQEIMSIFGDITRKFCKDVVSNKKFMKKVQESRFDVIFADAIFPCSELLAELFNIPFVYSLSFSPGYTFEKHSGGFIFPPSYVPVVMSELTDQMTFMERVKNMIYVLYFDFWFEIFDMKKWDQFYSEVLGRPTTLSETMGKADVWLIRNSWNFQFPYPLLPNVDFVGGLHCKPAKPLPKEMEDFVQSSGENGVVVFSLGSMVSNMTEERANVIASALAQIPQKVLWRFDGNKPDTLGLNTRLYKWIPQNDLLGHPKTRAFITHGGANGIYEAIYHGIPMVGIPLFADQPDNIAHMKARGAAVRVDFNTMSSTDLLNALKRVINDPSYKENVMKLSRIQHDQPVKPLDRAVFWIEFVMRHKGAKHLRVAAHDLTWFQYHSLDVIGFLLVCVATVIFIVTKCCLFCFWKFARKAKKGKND

Cc1ncc2n1-c1ccc(Cl)cc1C(c1ccccc1F)=NC2 [MIDAZOLAM]
microsomal CLint ([1]; microsomes): 153 µL/min/mg

O=c1c(O)c(-c2ccc(O)c(O)c2)oc2cc(O)cc(O)c12 [QUERCETIN]
fraction unbound ([2]; intestinal microsomes): 0.9
microsomal CLint ([3]; intestinal microsomes): 4620 µL/min/mg
CL free [4]: 5133 µL/min/mg
Drug metabolism [5]: metabolite_detected
Drug metabolism [6]: metabolite_detected
Fa [7]: 65%
Papp [8]: < 1.5 ×10⁻⁶ cm/s
CL/F (clinical [9]): 8330 mL/min/kg
blood plasma ratio (in vitro): 1

Cc1c(-c2ccc(O)cc2)n(Cc2ccc(OCCN3CCCCCC3)cc2)c2ccc(O)cc12 [BAZEDOXIFENE]
Drug metabolism [6]: metabolite_detected
Drug metabolism [10]: metabolite_detected
Drug metabolism [11]: metabolite_detected
Papp [8]: 20 ×10⁻⁶ cm/s
bioavailability [12]: 6.2%

CCCc1nc2c(C)cc(-c3nc4ccccc4n3C)cc2n1Cc1ccc(-c2ccccc2C(=O)O)cc1
fraction unbound ([2]; microsomes): 0.92
microsomal CLint ([3]; intestinal microsomes): 20 µL/min/mg
CL free [4]: 21.7 µL/min/mg
Papp [8]: > 30 ×10⁻⁶ cm/s
blood plasma ratio (in vitro): 0.67

Cc1ccc(C(=O)c2cc(O)c(O)c([N+](=O)[O-])c2)cc1 [TOLCAPONE]
fraction unbound ([2]; intestinal microsomes): 0.39
microsomal CLint ([3]; intestinal microsomes): 40 µL/min/mg
CL free [4]: 103 µL/min/mg
Drug metabolism [13]: metabolite_detected
Papp [8]: 18 ×10⁻⁶ cm/s
blood plasma ratio (in vitro): 0.61

COc1ccc2c(c1)c(CC(=O)O)c(C)n2C(=O)c1ccc(Cl)cc1 [INDOMETHACIN]
fraction unbound ([2]; microsomes): 0.8
microsomal CLint ([3]; intestinal microsomes): 4.2 µL/min/mg
CL free [4]: 5.2 µL/min/mg
Drug metabolism [13]: metabolite_detected
Papp [8]: 22 ×10⁻⁶ cm/s
clearance (clinical [14]): 1.4 mL/min/kg
blood plasma ratio (in vitro): 0.55
CL renal (clinical [15]): 0.21 mL/min/kg

O=C(c1ccc(OCCN2CCCCC2)cc1)c1c(-c2ccc(O)cc2)sc2cc(O)ccc12 [RALOXIFENE]
fraction unbound ([2]; intestinal microsomes): 0.98
CL ([3]; microsomes): 2180 µL/min/mg
CL free [4]: 2224 µL/min/mg
fraction unbound [16]: 0.43
microsomal CLint ([1]; intestinal microsomes): 8.9 µL/min/mg
CL free [17]: 20.7 µL/min/mg
Drug metabolism [10]: metabolite_detected
Drug metabolism [11]: metabolite_detected
Papp [8]: 3 ×10⁻⁶ cm/s

CCN(CC)C(=O)/C(C#N)=C/c1cc(O)c(O)c([N+](=O)[O-])c1 [ENTACAPONE]
fraction unbound ([2]; intestinal microsomes): 1
microsomal CLint ([3]; intestinal microsomes): 27 µL/min/mg
CL free [4]: 27 µL/min/mg
Papp [8]: 4.1 ×10⁻⁶ cm/s
blood plasma ratio (in vitro): 0.59

CCc1cccc2c3c([nH]c12)C(CC)(CC(=O)O)OCC3 (configuration not stated) [ETODOLAC]
microsomal CLint ([3]; intestinal microsomes): 6.2 µL/min/mg
CL free [4]: 5.7 µL/min/mg
Drug metabolism [13]: metabolite_detected
Papp [8]: 23 ×10⁻⁶ cm/s
bioavailability [12]: 80%
CL/F (clinical [9]): 0.82 mL/min/kg
clearance (clinical [14]): 0.66 mL/min/kg
blood plasma ratio (in vitro): 0.55

O=C(O)Cc1ccccc1Nc1c(Cl)cccc1Cl [DICLOFENAC]
fraction unbound ([2]; microsomes): 0.94
microsomal CLint ([3]; microsomes): 59 µL/min/mg
CL free [4]: 62.7 µL/min/mg
CL ([1]; microsomes): metabolite_not_detected
CL free [17]: metabolite_not_detected
Drug metabolism [18]: metabolite_detected
